Reference: patent publication US9404080B2, “Human taste cells capable of continuous proliferation” (B.R.A.I.N. BIOTECHNOLOGY RESEARCH AND INFORMATION NETWORK AG, priority 2012, dated 2016)
Entries after “also recorded” stand apart in the source; their conditions may differ.

Experiments:
[1] = tested on: BR-HTC38 cells; experiment: Fluo-4 fluorescent calcium imaging assay in TAS2R38-transduced BR-HTC38; type: cell-based, human; conditions: BR-HTC38 (TAS2R38 expressed) vs BR-HTC8
Method: (§1) Changes in Ca^2+-dependent Fluo-4 fluorescence were recorded on a Molecular Devices fluorescence microplate reader. Measurement was started by addition of increasing concentrations of the taste molecules in KH-buffer to the cells. KH-buffer served as negative control and KH-buffer containing 1 μM ionomycin served as a positive control. […] Calcium signals for each test molecule are depicted as Relative Fluorescence Units (RFU), which means that calcium mobilization in response to taste molecules was calculated dF/F0, with dF is (peak fluorescence F1−baseline fluorescence F0). […] Data were obtained from several independent experiments and performed in triplicates.

[2] = tested on: human taste cells BR-HTC8; experiment: Fluo-4 fluorescent calcium imaging assay in BR-HTC8; type: cell-based; conditions: for change of Fluo4-fluorescence / intracellular calcium on addition of the test molecule: BR-HTC8, increasing concentrations in KH-buffer with Ca2+; for Fluo-4 calcium response in the absence of extracellular Ca2+: KH-buffer without Ca2+, BR-HTC8, molecule alone; for Fluo-4 assay BR-HTC8: dose-dependent increase in intracellular calcium on stimulation with the cognate bitter molecule of the TAS2R named in the row; for Fluo-4 assay BR-HTC8: key: + indicates that the analysis was successful and that the mRNA was detected by RT-PCR or that stimulation of human taste cells with the respective taste molecule resulted in a dose-dependent increase in intracellular calcium or decrease in cellular membrane potential
Method: Before the assay, cells are maintained in HTC medium for at least 48 hours as described in Example 1. Cells are then trypsinized with accutase (e.g. PAA, L11-007) or TrypLE (e.g. Gibco, 12563) and seeded into poly-D-lysine coated 96-well assay plates (e.g. Corning) at a density of 15,000 cells/well in 100 μl HTC medium.
After 24 hours, the cells (still in 100 μl medium) are stained by addition of 100 μl of Fluo-4 staining solution, which consists of KH buffer (10 mM HEPES pH7.4 containing 118 mM NaCl, 4.7 mM KCl, 4.2 mM NaHCO3, 1.2 mM KH2PO4, 1.2 mM MgSO4, 1.3 mM CaCl2) containing 4 μM Fluo-4 (Molecular Probes) and incubation for 1 hour at 37° C. Final Fluo-4 concentration in the staining solution/medium mixture is 2 μM. Staining solution is then replaced by 80 μl KH-buffer per well and plates are transferred into a fluorescence microplate reader to monitor changes in Ca^2+-dependent fluorescence (excitation 488 nm, emission 530 nm) after the addition of 20 μl KH-buffer supplemented with the test molecule under investigation. The test molecule was added 16 seconds after starting the scan and baseline recording, mixed twice, and then recording continued for additional 44 seconds. Data points of a total of 18 reads were collected. Data analysis/Data recording—Calcium mobilization was measured as the change of peak fluorescence (ΔF) over the baseline level (F). Data were expressed as the mean S.E. of the ΔF/F value of replicated independent samples. Data analysis was done with software provided by the manufacturer of the microplate reader (e.g. Molecular Devices).
as §1, with “To test, whether stimulation of human taste cells with these taste molecules leads to changes in intracellular calcium the Fluo-4 fluorescent calcium imaging assay was performed as described above. Non-taste cells including HEK293 cells and non-lingual, proliferating primary cells isolated from the oral cavity served as a control and were treated equally throughout the procedure. Changes” for “Changes”, “Devices Fluorescence” for “Devices fluorescence”
In order to perform to the Fluo-4 fluorescent calcium imaging experiment in the absence of extracellular Ca^2+ the procedure was conducted as described above, however, the KH-buffer was prepared without addition of Ca^2+. Measurement was started by addition of increasing concentrations of the taste molecules in KH-buffer without Ca^2+ to the cells. KH-buffer without Ca^2+ served as negative control and KH-buffer without Ca^2+ containing 1 μM ionomycin served as a positive control.
To test, whether stimulation of human taste cells with oxytocin leads to changes in intracellular calcium the Fluo-4 fluorescent calcium imaging assay was performed as described above in Example 5. Briefly, the human taste cells were seeded in 96-well plates and stained with 2 μM of the calcium-sensitive fluorescence dye Fluo4 in HTC/KH buffer medium for one hour at 37° C. with subsequent replacement of the staining solution with KH-buffer. Non-taste cells including HEK293 cells and non-lingual, proliferating primary cells isolated from the oral cavity served as a control and were treated equally throughout the procedure. Changes in Ca^2+-dependent Fluo-4 fluorescence were recorded on a Molecular Devices Fluorescence microplate reader.

[3] = tested on: Non-taste cells including HEK293 cells, Cal33 cells, and non-lingual, proliferating primary cells isolated from the oral cavity; experiment: Fluo-4 fluorescent calcium imaging assay in non-taste control cells; type: cell-based, human
Method: Briefly, human taste cells were seeded in 96-well plates and stained with Fluo4-AM. Non-taste cells including HEK293 cells, Cal33 cells, and non-lingual, proliferating primary cells isolated from the oral cavity served as a control. Changes in Ca^2+-dependent Fluo-4 fluorescence were recorded on a Molecular Devices fluorescence microplate reader. Measurement was started by addition of increasing concentrations of the taste molecules. […] Calcium signals for each test molecule are depicted as relative fluorescence units (RFU).
as §1, with “To test, whether stimulation of human taste cells with these taste molecules leads to changes in intracellular calcium the Fluo-4 fluorescent calcium imaging assay was performed as described above. Non-taste cells including HEK293 cells and non-lingual, proliferating primary cells isolated from the oral cavity served as a control and were treated equally throughout the procedure. Changes” for “Changes”, “Devices Fluorescence” for “Devices fluorescence”

[4] = tested on: human taste cells BR-HTC8; experiment: FLIPR fluorescent membrane potential (FMP) imaging assay in BR-HTC8; type: cell-based; conditions: BR-HTC8, increasing concentrations in KH-buffer
Method: This cell depolarization was measured by using voltage-sensitive dyes including FLIPR fluorescent membrane potential (FMP) dye (Molecular Devices R8123). Before the assay, cells were maintained in HTC medium for at least 48 hours as described above in Example 1. Cells were then trypsinized with accutase (e.g. PAA, L11-007) or TrypLE (e.g. Gibco, 12563) and seeded into poly-D-lysine coated 96-well assay plates (Corning) at a density of 15,000 cells/well in […].
After 24 hours, medium was removed and the cells are washed once with 100 μl KH buffer (10 mM HEPES pH7.4 containing 118 mM NaCl, 4.7 mM KCl, 4.2 mM NaHCO3, 1.2 mM KH2PO4, 1.2 mM MgSO4, 1.3 mM CaCl2) and then stained with 200 μl KH buffer containing FLIPR FMP dye according instructions of the manufacturer […] and incubation for 2 hours at 37° C. The plates were then transferred into a fluorescence microplate reader to monitor changes in membrane potential-dependent fluorescence (excitation 530 nm, emission 565 nm) after the addition of 50 μl KH-buffer supplemented with the test molecule under investigation. The test molecule was added 16 seconds after starting the scan and baseline recording, mixed twice, and then recording continued for additional 74 seconds. Data points of a total of 35 reads were collected.
Data analysis/Data recording—Changes of the membrane potential was measured as the change of peak fluorescence (ΔF) over the baseline level (F). Data were expressed as the mean S.E. of the ΔF/F value of replicated independent samples. Data analysis was done with software provided by the manufacturer of the microplate reader (Molecular Devices).
(§2) To test, whether stimulation of human taste cells with taste molecules leads to changes in cellular membrane potential the FLIPR fluorescent membrane potential assay was performed as described above. Non-taste cells including HEK293 cells and non-lingual, proliferating primary cells isolated from the oral cavity served as a control and were treated equally throughout the procedure. Changes in membrane potential were recorded on a Molecular Devices Fluorescence microplate reader. Measurement was started by addition of increasing concentrations of the taste molecules in KH-buffer to the cells. KH-buffer served as negative control and KH-buffer containing 4 μM FCCP (e.g. Sigma, C2920) served as a positive control. […] Data were obtained from several independent experiments and performed in triplicates.
as §2, with “This cell depolarization can be measured by using voltage-sensitive dyes including FLIPR fluorescent membrane potential (FMP) dye (Molecular Devices R8123) as described above in Example 6. To” for “To”, “oxytocin” for “taste molecules”, “oxytocin” for “the taste molecules”

With `O=C1NS(=O)(=O)c2ccccc21` [Saccharin] the “dose-dependent Fluo-4 calcium response in BR-HTC38 compared with parental BR-HTC8” value [1] was “enhanced”, the “change of Fluo4-fluorescence / intracellular calcium on addition of the test molecule” value [2] was “dose-dependent increase of Fluo4-fluorescence” and the “Fluo-4 calcium response in the absence of extracellular Ca2+” value [2] was “cannot trigger a Ca^2+ response; also recorded: did not trigger increase of intracellular Ca^2+; also recorded: no response”. For the same compound, the “increase of intracellular calcium in response to salicin when combined with saccharin” value ([2]; absence of extracellular calcium, increasing salicin with four fixed concentrations of saccharin) was “strongly enhanced”, the “Fluo-4 assay BR-HTC8” value [2] was “+” and the “increase of Fluo4-fluorescence in control cells” value [3] was “not in control cells”.
In the case of `OCc1ccccc1O[C@@H]1O[C@H](CO)[C@@H](O)[C@H](O)[C@H]1O` [Salicin], the “dose-dependent Fluo-4 calcium response in BR-HTC38 compared with parental BR-HTC8” value [1] is reported as “enhanced”, the “change of Fluo4-fluorescence / intracellular calcium on addition of the test molecule” value [2] is reported as “dose-dependent increase of Fluo4-fluorescence” and the “Fluo-4 calcium response in the absence of extracellular Ca2+” value [2] is reported as “increase of intracellular calcium; also recorded: dose-dependent increase of Fluo4-fluorescence”. For the same compound, the “Fluo-4 assay BR-HTC8” value [2] was “+”, the “increase of Fluo4-fluorescence in control cells” value [3] was “not in control cells” and the “change of cellular membrane potential (FLIPR FMP dye fluorescence) on addition of the test molecule” value [4] was “did not elicit significant changes in cellular membrane potential”.
